# Where a name gives a salt, the structure may show the parent alone.
# Assays:
# [1] = test system: SH-SY5Y cells; assay: Cancer cell growth inhibition evaluation (MTT assay); format: cell-based; conditions: Homo sapiens, MTT, read-out: GI50 (μM) SH-SY5Y
# Description: (§1) Evaluation was performed by measuring the inhibitory activities of a compound against the growth of a human cervical cancer-derived cell line, HeLa cells, and a human neuroblastoma cell line, SH-SY5Y cells. Details thereof are shown below. […] This assay involves, as a principle thereof, measuring an absorbance at the time of color development through a reaction of NADH, which is contained in the mitochondria of viable cells, and MTT to measure the amount of NADH. The assay was performed by the following procedure. […] After the culture, a compound was added. Then, the cells were cultured for an additional 48 hours, and then 5 mg/ml MTT liquid was added at 10 μl per well. The cells were cultured for an additional 3 hours in a CO2 incubator. A solubilization solution (0.04 mol/l hydrochloric acid-isopropanol) was added at 100 μl per well and the mixture was vigorously vortexed. After that, an absorbance at 560 nm was measured with Fusion-aFP (manufactured by PerkinElmer) and the amount of viable cells was determined.
# [2] = test system: HeLa cells; assay: as above; format: cell-based; conditions: Homo sapiens; 48 hours with compound, MTT; read-out: GI50 (μM) HeLa
# Description: as §1
# [3] = target: T1, LSD1 (Homo sapiens, UniProt O60341); assay: LSD1 inhibition test (peroxidase-coupled absorbance assay); format: biochemical; conditions: 25° C., 30 minutes, histone H3-lysine 4 dimethyl peptide
# T1 construct: five histidine residues added to the N-terminus of full-length LSD1 (1-851aa); 5xHis (five histidine residues) (N); made in house; host or cells: Escherichia coli
melting point [°C],GI50 [1] [µM],GI50 [2] [µM],IC50 [3] [µM],SMILES
101 to 103,,,,"CC(C)(C)c1ccc(C(=O)N[C@@H](CCCCNC2CC2c2ccccc2)C(=O)NCc2ccccc2)cc1 (stereo partly drawn) (as salt: hydrochloride) [Example 5, 2-[N-(4-tert-Butylbenzenecarbonyl)]amino-6-(trans-2-phenylcyclopropan-1-amino)-N-benzylhexanamide Hydrochloride]"
107 to 109,,,,"O=C(N[C@@H](CCCCNC1CC1c1ccccc1)C(=O)NCc1ccccc1)c1ccc(Cl)cc1 (stereo partly drawn) (as salt: hydrochloride) [Example 6, 2-[N-(4-Chlorobenzenecarbonyl)]amino-6-(trans-2-phenylcyclopropan-1-amino)-N-benzylhexanamide Hydrochloride]"
90 to 91,,,,"O=C(N[C@@H](CCCCNC1CC1c1ccccc1)C(=O)NCc1ccccc1)c1ccc(F)cc1 (stereo partly drawn) (as salt: hydrochloride) [Example 7, 2-[N-(4-Fluorobenzenecarbonyl)]amino-6-(trans-2-phenylcyclopropan-1-amino)-N-benzylhexanamide Hydrochloride]"
98 to 101,,,,"O=C(N[C@@H](CCCCNC1CC1c1ccccc1)C(=O)NCc1ccccc1)c1ccc(C(F)(F)F)cc1 (stereo partly drawn) (as salt: hydrochloride) [Example 9, 2-[N-(4-Trifluoromethylbenzenecarbonyl)]amino-6-(trans-2-phenylcyclopropan-1-amino)-N-benzylhexanamide Hydrochloride]"
117 to 118,,,,"Cc1ccc(CNC(=O)[C@H](CCCCNC2CC2c2ccccc2)NC(=O)c2ccc(-c3ccccc3)cc2)cc1 (stereo partly drawn) (as salt: hydrochloride) [Example 12, 2-[N-(4-Phenylbenzenecarbonyl)]amino-6-(trans-2-phenylcyclopropan-1-amino)-N-(4-methylbenzyl)hexanamide Hydrochloride]"
95 to 96,,,,"O=C(N[C@@H](CCCCNC1CC1c1ccccc1)C(=O)NCc1ccc(F)cc1)c1ccc(-c2ccccc2)cc1 (stereo partly drawn) (as salt: hydrochloride) [Example 13, 2-[N-(4-Phenylbenzenecarbonyl)]amino-6-(trans-2-phenylcyclopropan-1-amino)-N-(4-fluorobenzyl)hexanamide Hydrochloride]"
139 to 140,,,,"O=C(N[C@@H](CCCCNC1CC1c1ccccc1)C(=O)NCc1ccc(-c2ccccc2)cc1)c1ccc(-c2ccccc2)cc1 (stereo partly drawn) (as salt: hydrochloride) [Example 14, 2-[N-(4-Phenylbenzenecarbonyl)]amino-6-(trans-2-phenylcyclopropan-1-amino)-N-(4-phenylbenzyl)hexanamide Hydrochloride]"
101 to 103,,,,"Cc1cccc(CNC(=O)[C@H](CCCCNC2CC2c2ccccc2)NC(=O)c2ccc(-c3ccccc3)cc2)c1 (stereo partly drawn) (as salt: hydrochloride) [Example 16, 2-[N-(4-Phenylbenzenecarbonyl)]amino-6-(trans-2-phenylcyclopropan-1-amino)-N-(3-methylbenzyl)hexanamide Hydrochloride]"
,,,0.06,"N[C@@H](CCCCNC1CC1c1ccccc1)C(=O)NCc1ccccc1 (stereo partly drawn) [Example 3, 2-Amino-6-(trans-2-phenylcyclopropan-1-amino)-N-benzylhexanamide Dihydrochloride]"
,,,0.44,"Cc1ccc(C(=O)N[C@@H](CCCCNC2CC2c2ccccc2)C(=O)NCc2ccccc2)cc1 (stereo partly drawn) [Example 4, 2-[N-(4-Methylbenzenecarbonyl)]amino-6-(trans-2-phenylcyclopropan-1-amino)-N-benzylhexanamide Trifluoroacetate]"
,4.8,12,0.79,"CC(C)(C)c1ccc(C(=O)N[C@@H](CCCCNC2CC2c2ccccc2)C(=O)NCc2ccccc2)cc1 (stereo partly drawn) [Example 5, 2-[N-(4-tert-Butylbenzenecarbonyl)]amino-6-(trans-2-phenylcyclopropan-1-amino)-N-benzylhexanamide Hydrochloride]"
,11,13,0.2,"O=C(N[C@@H](CCCCNC1CC1c1ccccc1)C(=O)NCc1ccccc1)c1ccc(Cl)cc1 (stereo partly drawn) [Example 6, 2-[N-(4-Chlorobenzenecarbonyl)]amino-6-(trans-2-phenylcyclopropan-1-amino)-N-benzylhexanamide Hydrochloride]"
,,,0.25,"O=C(N[C@@H](CCCCNC1CC1c1ccccc1)C(=O)NCc1ccccc1)c1ccc(F)cc1 (stereo partly drawn) [Example 7, 2-[N-(4-Fluorobenzenecarbonyl)]amino-6-(trans-2-phenylcyclopropan-1-amino)-N-benzylhexanamide Hydrochloride]"
,5.4,13,0.38,"O=C(N[C@@H](CCCCNC1CC1c1ccccc1)C(=O)NCc1ccccc1)c1ccc(C(F)(F)F)cc1 (stereo partly drawn) [Example 9, 2-[N-(4-Trifluoromethylbenzenecarbonyl)]amino-6-(trans-2-phenylcyclopropan-1-amino)-N-benzylhexanamide Hydrochloride]"
,,,0.1,"NCCNC(=O)c1cccc(C(=O)N[C@@H](CCCCNC2CC2c2ccccc2)C(=O)NCc2ccccc2)c1 (stereo partly drawn) [Example 10, 2-{3-[(2-Amino)ethylcarbamoyl]benzenecarbonylamino)-6-(trans-2-phenylcyclopropan-1-amino)-N-benzylhexanamide Ditrifluoroacetate]"
,,,0.25,"O=C(N[C@@H](CCCCNC1CC1c1ccccc1)C(=O)NCc1ccccc1)c1cccc(C(=O)N2CCNCC2)c1 (stereo partly drawn) [Example 11, 2-[3-(Piperazine-1-carbonyl)benzenecarbonylamino}-6-(trans-2-phenylcyclopropan-1-amino)-N-benzylhexanamide Ditrifluoroacetate]"
,3.5,4.4,0.6,"Cc1ccc(CNC(=O)[C@H](CCCCNC2CC2c2ccccc2)NC(=O)c2ccc(-c3ccccc3)cc2)cc1 (stereo partly drawn) [Example 12, 2-[N-(4-Phenylbenzenecarbonyl)]amino-6-(trans-2-phenylcyclopropan-1-amino)-N-(4-methylbenzyl)hexanamide Hydrochloride]"
,3.9,4.4,0.75,"O=C(N[C@@H](CCCCNC1CC1c1ccccc1)C(=O)NCc1ccc(F)cc1)c1ccc(-c2ccccc2)cc1 (stereo partly drawn) [Example 13, 2-[N-(4-Phenylbenzenecarbonyl)]amino-6-(trans-2-phenylcyclopropan-1-amino)-N-(4-fluorobenzyl)hexanamide Hydrochloride]"
,6.4,5.2,2.7,"O=C(N[C@@H](CCCCNC1CC1c1ccccc1)C(=O)NCc1ccc(-c2ccccc2)cc1)c1ccc(-c2ccccc2)cc1 (stereo partly drawn) [Example 14, 2-[N-(4-Phenylbenzenecarbonyl)]amino-6-(trans-2-phenylcyclopropan-1-amino)-N-(4-phenylbenzyl)hexanamide Hydrochloride]"
,2.7,4,1.2,"CC(C)(C)c1ccc(CNC(=O)[C@H](CCCCNC2CC2c2ccccc2)NC(=O)c2ccc(-c3ccccc3)cc2)cc1 (stereo partly drawn) [Example 15, 2-[N-(4-Phenylbenzenecarbonyl)]amino-6-(trans-2-phenylcyclopropan-1-amino)-N-(4-tert-butylbenzyl)hexanamide Trifluoroacetate]"
,2.3,4.2,0.68,"Cc1cccc(CNC(=O)[C@H](CCCCNC2CC2c2ccccc2)NC(=O)c2ccc(-c3ccccc3)cc2)c1 (stereo partly drawn) [Example 16, 2-[N-(4-Phenylbenzenecarbonyl)]amino-6-(trans-2-phenylcyclopropan-1-amino)-N-(3-methylbenzyl)hexanamide Hydrochloride]"
,4.1,10.9,0.67,"O=C(N[C@@H](CCCCNC1CC1c1ccccc1)C(=O)NCc1cccc(F)c1)c1ccc(-c2ccccc2)cc1 (stereo partly drawn) [Example 17, 2-[N-(4-Phenylbenzenecarbonyl)]amino-6-(trans-2-phenylcyclopropan-1-amino)-N-(3-fluorobenzyl)hexanamide Hydrochloride]"
,3.8,9.7,0.98,"O=C(N[C@@H](CCCCNC1CC1c1ccccc1)C(=O)NCc1cccc(-c2ccccc2)c1)c1ccc(-c2ccccc2)cc1 (stereo partly drawn) [Example 18, 2-[N-(4-Phenylbenzenecarbonyl)]amino-6-(trans-2-phenylcyclopropan-1-amino)-N-(3-phenylbenzyl)hexanamide Hydrochloride]"

SMILES,melting point [°C],GI50 [1] [µM],GI50 [2] [µM],IC50 [3] [µM]
"O=C(N[C@@H](CCCCNC1CC1c1ccccc1)C(=O)NCc1ccccc1)c1ccc(-c2ccccc2)cc1 (stereo partly drawn) (as salt: hydrochloride) [Example 8, 2-[N-(4-Phenylbenzenecarbonyl)]amino-6-(trans-2-phenylcyclopropan-1-amino)-N-benzylhexanamide Hydrochloride]",143 to 146,,,
"NC1CC1c1ccccc1 (stereo not drawn) [Comp. Ex. 1, trans-2-Phenylcyclopropylamine, reference compound]",,503,> 500,
"CC(C)(C)OC(=O)N[C@@H](CCCCNC1CC1c1ccccc1)C(=O)NCc1ccccc1 (stereo partly drawn) [Example 2, 2-(N-tert-Butoxycarbonyl)amino-6-(trans-2-phenylcyclopropan-1-amino)-N-benzylhexanamide]",,,,1.2
